{"source": "patent US20250271439A1", "about": "“PROTEOMIC SIGNATURE OF PLASMA EXTRACELLULAR VESICLES CLASSIFIES RESPONSE TO DOXORUBICIN AND CANCER” (Washington University, priority 2022, published 2025)", "key": {"[1]": {"tested_on": "sarcoma patients", "assay": "Tumor response to doxorubicin monotherapy assessed by RECIST version 1.1 (SARC021 trial)", "assay_type": "in vivo, human", "conditions": "two cycles of 75 mg/m^2 doxorubicin, 6 weeks", "procedure": "Plasma was acquired from a cohort of 40 sarcoma patients on the doxorubicin monotherapy control arm of the international, open-label, prospective, randomized, phase 3, multicenter SARC021 trial (TH CR-406)^16. SARC021 was conducted at 81 academic or community investigational sites across 13 countries, and one arm of the trial treated patients with doxorubicin alone, the standard of care. Samples were obtained from 8 different sarcoma subtypes in the cohort, including angiosarcoma (AS), epitheloid sarcoma (EPI), leiomyosarcoma (LMS), liposarcoma (LS), myxofibrosarcoma (MFS), malignant peripheral nerve sheath tumor (MPNST), rhabdomyosarcoma (PMRMS), and undifferentiated pleomorphic sarcoma (UPS). The number of patients per sarcoma subtype ranged from 1 to 13 (Table 1).\nPlasma for the sarcoma cohort was acquired prior to treatment with two cycles of 75 mg/m^2 doxorubicin, and just prior to cycle 3, for a total treatment time of 6 weeks (FIG. 1A). […]\nDoxorubicin treatment and plasma collection: Plasma was obtained from anonymized sarcoma patients on the TH CR-406/SARC021 clinical trial, registered with ClinicalTrials.gov as NCT01440088 and entitled “A Trial of TH-302 in Combination With Doxorubicin Versus Doxorubicin Alone to Treat Patients With Locally Advanced Unresectable or Metastatic Soft Tissue Sarcoma”^84. […] Tumor response was assessed at the end of cycle 2 using RECIST version 1.1^18. […]"}, "[2]": {"tested_on": "plasma EV proteome", "assay": "Label free quantitative proteomics of plasma EVs before versus after doxorubicin treatment", "assay_type": "in vivo, human", "conditions": "SARC021 sarcoma cohort; also considering the patient's treatment sensitivity; FIG. 5A"}}}
{"compound": "COc1cccc2c1C(=O)c1c(O)c3c(c(O)c1C2=O)C[C@@](O)(C(=O)CO)C[C@@H]3O[C@H]1C[C@H](N)[C@H](O)[C@H](C)O1", "note": "[doxorubicin]", "values": [{"measurement": "sarcoma patients considered treatment resistant", "setting": "[1]; cohort of 40 sarcoma patients", "value": 37.5, "unit": "%"}, {"measurement": "number of sarcoma patients considered treatment resistant", "setting": "[1]; of 40 sarcoma patients", "value": 15}, {"measurement": "change in EV protein abundance, plasma samples collected before and after treatment", "setting": "[2]", "value": "no statistically significant change"}]}
